In paper PMC5823474, “A natural agonist of mosquito TRPA1 from the medicinal plant Cinnamosma fragrans that is toxic, antifeedant, and repellent to the yellow fever mosquito Aedes aegypti” (PLoS Neglected Tropical Diseases, 2018):

Molecular target: T1, AgTRPA1 (Transient Receptor Potential A1) (Anopheles gambiae, UniProt B3G3I7)
T1 construct: AgTRPA1 cRNA expressed in Xenopus laevis oocytes
T1 sequence (B3G3I7 1-1248): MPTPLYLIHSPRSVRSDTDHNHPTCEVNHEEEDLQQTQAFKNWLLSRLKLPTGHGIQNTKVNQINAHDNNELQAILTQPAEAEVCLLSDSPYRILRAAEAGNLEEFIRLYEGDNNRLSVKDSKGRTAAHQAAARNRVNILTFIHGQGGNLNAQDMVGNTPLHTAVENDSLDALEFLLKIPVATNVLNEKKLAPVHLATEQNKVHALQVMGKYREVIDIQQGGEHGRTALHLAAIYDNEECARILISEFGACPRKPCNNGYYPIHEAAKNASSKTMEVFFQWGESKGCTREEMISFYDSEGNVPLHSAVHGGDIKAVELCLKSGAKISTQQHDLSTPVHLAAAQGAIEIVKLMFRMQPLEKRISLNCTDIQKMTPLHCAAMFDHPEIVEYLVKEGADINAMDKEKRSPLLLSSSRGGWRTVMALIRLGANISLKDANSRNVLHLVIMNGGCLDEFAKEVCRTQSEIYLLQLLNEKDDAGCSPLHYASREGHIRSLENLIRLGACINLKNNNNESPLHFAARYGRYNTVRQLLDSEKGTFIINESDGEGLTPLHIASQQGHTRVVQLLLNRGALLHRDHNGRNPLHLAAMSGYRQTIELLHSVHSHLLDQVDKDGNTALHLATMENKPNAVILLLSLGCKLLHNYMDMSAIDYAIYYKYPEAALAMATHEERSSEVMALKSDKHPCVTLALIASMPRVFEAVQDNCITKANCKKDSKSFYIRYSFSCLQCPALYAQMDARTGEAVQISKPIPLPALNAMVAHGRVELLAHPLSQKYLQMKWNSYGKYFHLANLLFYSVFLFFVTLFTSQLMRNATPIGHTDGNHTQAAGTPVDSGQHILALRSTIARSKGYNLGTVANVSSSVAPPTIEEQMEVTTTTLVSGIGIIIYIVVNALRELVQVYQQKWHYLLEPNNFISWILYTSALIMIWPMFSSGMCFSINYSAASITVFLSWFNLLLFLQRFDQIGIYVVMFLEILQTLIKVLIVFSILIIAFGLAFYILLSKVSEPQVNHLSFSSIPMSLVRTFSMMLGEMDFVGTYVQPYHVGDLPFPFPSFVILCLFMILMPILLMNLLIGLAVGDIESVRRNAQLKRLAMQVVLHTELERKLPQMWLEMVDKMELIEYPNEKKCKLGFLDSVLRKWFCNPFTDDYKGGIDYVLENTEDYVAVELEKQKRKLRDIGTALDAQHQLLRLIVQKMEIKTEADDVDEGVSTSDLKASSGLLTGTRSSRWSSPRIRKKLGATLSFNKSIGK
Assay: two-electrode voltage clamp in Xenopus oocytes, weaker agonist at […]; no response in H2O-injected oocytes
Format: cell-based

CC(=O)O[C@@H]1C=C(C2O[C@@H]3O[C@@H](O)C4=C[C@@H](OC(C)=O)[C@H]5C(C)(C)CCC[C@]5(C)[C@]43O2)[C@](O)(C=O)[C@@]2(C)CCCC(C)(C)[C@H]12 (stereo partly shown) [CFRAG, cinnafragrin A]
two-electrode voltage clamp in Xenopus oocytes, weaker agonist at 10 μM; no resp: CFRAG produced a similar response, but the peak Im elicited by CDIAL
